Assay [1] concerns ORF880. Kind of assay: In vitro reaction rates of purified ORF880 with different fatty acid substrates. Type of assay: biochemical, Jeotgalicoccus sp. ATCC8456. The settings on record: 1.0 μM ORF880, 200 μM fatty acid salt, pH 7.2, room temperature, between 20 min and 47 min. As to the method: The genomic DNA encoding Jeotgalicoccus sp. ATCC8456_orf880 was cloned into the NdeI and XhoI sites of vector pET15b (Novagen) under the control of the T7 promoter for expression in and purification from E. coli. This plasmid expressed an N-terminal His-tagged version of 8456_orf880.
An E. coli BL21 strain (DE3) (Invitrogen) was transformed with pET15b-orf880 using routine chemical transformation techniques. Protein expression was carried out by first inoculating a colony of the E. coli strain in 5 mL of LB media supplemented with 100 mg/L of carbenecillin and shaken overnight at 37° C. to produce a starter culture. This starter culture was used to inoculate 1 L of LB media supplemented with 100 mg/L of carbenecillin. The culture was shaken at 37° C. until an OD600 value of 0.6 was reached. The culture was placed on ice for 10 min before IPTG was added to a final concentration of 250 μM. The culture was then shaken at 18° C. for approximately 18 h. The culture was then centrifuged at 3,700 rpm for 20 min at 4° C. The pellet was then resuspended in 30 mL of buffer containing 100 mM sodium phosphate buffer at pH 7.2 supplemented with Bacterial ProteaseArrest (GBiosciences). The cells were then sonicated at 12 W on ice for 9 sec with 1.5 sec of sonication followed by 1.5 sec of rest. This procedure was repeated 5 times with one min intervals between each sonication cycle. The cell free extract was centrifuged at 10,000 rpm for 30 min at 4° C. 5 mL of Ni-NTA (Qiagen) was added to the supernatant and the mixture was gently stirred at 4° C. The slurry was passed over a column removing the resin from the lysate. The resin was then washed with 30 mL of buffer containing 100 mM sodium phosphate buffer at pH 7.2 plus 30 mM imidazole. Finally, the protein was eluted with 15 mL of 100 mM sodium phosphate buffer at pH 7.2 plus 250 mM imidazole. The protein solution was dialyzed with 200 volumes of 100 mM sodium phosphate buffer at pH 7.2. Protein concentration was determined using the Bradford assay (Biorad). 125 μg/mL of protein was obtained.
In order to assay the in vitro fatty acid substrate specificity of ORF880, potassium salts of the following fatty acids were prepared: tetradecanoic acid, hexadecanoic acid, octadecanoic acid, eicosanoic acid, and behenic acid (Sigma). The fatty acid solutions were made with 2% ethanol and 2% Tergitol solution (Sigma, St. Louis, Mo.) to a final concentration of 20 mM.
The kinetics of the decarboxylation reaction was determined using potassium octadecanoate. A 200 μL reaction was prepared with the following reactant concentrations: 1.25 μM of ORF880, 200 μM of potassium octadecanoate, […], and 100 mM sodium phosphate buffer at pH 7.2. […] Samples were analyzed using GC/MS using the alkane-1 splitless method, which is performed using the following parameters: run time: 20 min; column: HP-5-MS Part No. 19091S-433E (length of 30 meters; I.D.: 0.25 mm narrowbore; film: 0.25 μM); sample: standard ethyl acetate extraction; inject: 1 μL Agilent 6850 inlet; inlet: 300° C. splitless; carrier gas: helium; flow: 1.3 mL/min; oven temp: 100° C. hold 5 min, 320 at 20° C./min, 320 hold 5 min; det: Agilent 5975B VL MSD; det. temp: 300° C.; scan: 50-500 M/Z. Calibration curves were generated using 1-heptadecene dissolved in ethyl acetate. Based upon this analysis, the product production was determined to be linear from 5 min to 60 min. […]

The test system of assay [2] is ATCC 8456 cells. Kind of assay: Fatty acid feeding of ATCC 8456 cells, α-olefins analyzed by GC-MS. Type of assay: cell-based, Jeotgalicoccus sp. ATCC 8456. The settings on record: fatty acid fed at 0.5 g/l (0.05%), 40-48 h at 30° C.; for α-olefin whose production increased upon fatty acid feeding: olefins not normally produced by ATCC 8456. As to the method: ATCC 8456 cells were grown in 15 mL TSBYE medium (3% Tryptic Soy Broth+0.5% Yeast Extract). Fatty acids were added to the culture medium at final concentrations of 0.5 g/l (0.05%). After growth for 40-48 h at 30° C., cells from 5 mL of culture were pelleted, resuspended in 1 mL methanol, sonicated for 30 min, and extracted with 4 mL hexane. After solvent evaporation, samples were resuspended in 0.1 mL hexane and analyzed by GC-MS.

Assay [3] deals with ATCC 8456 cell free extract. The experiment in a line: Conversion of free fatty acids into α-olefins by ATCC 8456 cell free extract. The settings on record: for α-olefin formed from the fatty acid by cell free extract: 1 mM free fatty acid salt, room temperature, 3 h. The format is biochemical, Jeotgalicoccus sp. ATCC 8456. How it is done: A cell free extract of ATCC 8456 was used to convert free fatty acids into α-olefins. The cell free extract was generated using the following procedure: ATCC 8456 cells were grown in TSBYE medium (3% Tryptic Soy Broth+0.5% Yeast Extract) at 30° C. for 24 h with shaking. The cells were then pelleted from the culture by centrifuging at 3,700 rpm for 20 min. The cell pellet was then resuspended in 50 mM Tris buffer pH 7.5 with 0.1 M NaCl and 2.0 mM dithiothreitol to a concentration of 0.1 g/mL cells. To this cell slurry, 200 units/mL of lysostaphin (Sigma) were added on ice. The cell lysis reaction was allowed to proceed for 30 min. The cells were then sonicated at 12 W on ice for three cycles of 1.5 sec of sonication followed by 1.5 sec of rest. Sonication lasted for a total of 9 sec. This procedure was repeated 5 times with a 1 min interval between each sonication cycle. The lysed cells were then centrifuged at 12,000 rpm for 10 min to pellet the cell debris. The supernatant (i.e., cell free extract) was then removed and used for the conversion of free fatty acids to α-olefins.
First, a 5% stock solution of sodium or potassium stearate was made in 1% Tergitol solution (Sigma, St. Louis, Mo.). Next, 6 μL of the stock solution was added to 1 mL of the cell free extract at room temperature to obtain a final concentration of 1 mM free fatty acid salt. The reaction was conducted at room temperature for 3 h. The α-olefins were recovered by adding 200 μL of ethyl acetate to the mixture, vortexing briefly, centrifuging briefly, and then removing the organic phase. The α-olefins were detected using GC/MS.
In sample 1 (TIC1; black line in FIG. 5), no stearic acid was added to the cell free extract. In sample 2 (TIC3; blue line in FIG. 5), the cell free extract was replaced with 50 mM Tris pH 7.5 buffer with 0.1 M sodium chloride to which stearic acid was added. In sample 3 (TICS; red line in FIG. 5), stearic acid was added to the cell free extract. The peak at 7.62 min had the same retention time and the same mass spectra as a 1-heptadecene standard (Sigma). When eicosanoic acid was added under similar conditions, 1-nonadecene was formed.
When the cell free extract was supplemented with several co-factors in 1 mM concentrations, no increase in α-olefin synthesis was observed. The co-factors examined were NAD+, NADP+, NADH, NADPH, FADH2, SAM, ATP, and CoA. In addition, Mg^2+ was examined at a 10 mM concentration. The co-factor requirement was also tested by dialyzing the cell free extract with a 10 kDa cut-off membrane for 1.5 h in a volume 200-fold greater than the cell extract volume using a dialysis buffer: 50 mM Tris, pH 7.5 with 0.1 M sodium chloride. No decrease in α-olefin synthesis was observed after dialysis. Additionally, no decrease in α-olefin synthesis was observed when 10 mM EDTA pH 7.5 was added to the reaction mixture.

As to `CCCCCCCCCCCCCCCC(=O)O` [hexadecanoic acid], the “Activity (nM alkene produced/min)” value in assay [1] amounted to 181.9 nM alkene produced/min. In addition, the “α-olefin whose production increased upon fatty acid feeding” value in assay [2] is 1-heptadecene.
As to `NC(=O)C1=CN([C@@H]2O[C@H](COP(=O)(O)OP(=O)(O)OC[C@H]3O[C@@H](n4cnc5c(N)ncnc54)[C@H](OP(=O)(O)O)[C@@H]3O)[C@@H](O)[C@H]2O)C=CC1` [NADPH], the “effect of co-factor supplementation on α-olefin synthesis” value (shortened to “effect of co-factor supplementation”) in assay [3] (co-factor at 1 mM) is listed as “no increase”.
Same read-out and setting: the value for `NC(=O)c1ccc[n+]([C@@H]2O[C@H](COP(=O)([O-])OP(=O)(O)OC[C@H]3O[C@@H](n4cnc5c(N)ncnc54)[C@H](O)[C@@H]3O)[C@@H](O)[C@H]2O)c1` [NAD+] was “no increase”; that for `NC(=O)C1=CN([C@@H]2O[C@H](COP(=O)(O)OP(=O)(O)OC[C@H]3O[C@@H](n4cnc5c(N)ncnc54)[C@H](O)[C@@H]3O)[C@@H](O)[C@H]2O)C=CC1` [NADH] was “no increase”.
`CCCCCCCCCCCCCCCCCC(=O)O` [octadecanoic acid]: in assay [1], the “Activity (nM alkene produced/min)” value is 77.2 nM alkene produced/min. Besides, the “α-olefin formed from the fatty acid by cell free extract” value in assay [3] was 1-heptadecene. In assay [2], the “α-olefin whose production increased upon fatty acid feeding” value is 1-pentadecene.
`C[S+](CC[C@H](N)C(=O)[O-])C[C@H]1O[C@@H](n2cnc3c(N)ncnc32)[C@H](O)[C@@H]1O` (some centres unmarked) [SAM]: the “effect of co-factor supplementation” value in assay [3] (co-factor at 1 mM) is “no increase”.
In the case of `[Mg+2]` [Mg^2+], the “effect of co-factor supplementation” value in assay [3] (10 mM concentration) was “no increase”.
For `Cc1cc2c(cc1C)N(C[C@H](O)[C@H](O)[C@H](O)COP(=O)(O)OP(=O)(O)OC[C@H]1O[C@@H](n3cnc4c(N)ncnc43)[C@H](O)[C@@H]1O)c1[nH]c(=O)[nH]c(=O)c1N2` [FADH2], the “effect of co-factor supplementation” value in assay [3] (co-factor at 1 mM) was “no increase”.
Consider `NC(=O)c1ccc[n+]([C@@H]2O[C@H](COP(=O)([O-])OP(=O)(O)OC[C@H]3O[C@@H](n4cnc5c(N)ncnc54)[C@H](OP(=O)(O)O)[C@@H]3O)[C@@H](O)[C@H]2O)c1` [NADP+], for which the “effect of co-factor supplementation” value in assay [3] (co-factor at 1 mM) is on record as “no increase”.
Still for that read-out and setting: the value for `CC(C)(COP(=O)(O)OP(=O)(O)OC[C@H]1O[C@@H](n2cnc3c(N)ncnc32)[C@H](O)[C@@H]1OP(=O)(O)O)[C@@H](O)C(=O)NCCC(=O)NCCS` [CoA] was “no increase”.
Turning to `O=C(O)CN(CCN(CC(=O)O)CC(=O)O)CC(=O)O` [EDTA], in assay [3] (10 mM, pH 7.5), the “effect on α-olefin synthesis when added to the reaction mixture” value is recorded as “no decrease”.
In the case of `CCCCCCCCCCCCCCCCCCCC(=O)O` [eicosanoic acid], the “Activity (nM alkene produced/min)” value in assay [1] worked out at 19.7 nM alkene produced/min. Moreover, the “α-olefin formed from the fatty acid by cell free extract” value in assay [3] was 1-nonadecene. For the same molecule, the “increase in 1-nonodecene production” value in assay [2] (versus no fatty acid feeding) is recorded as “approximately 18 fold”.
Turning to `CCCCCCCCCCCCCC(=O)O` [tetradecanoic acid], the “Activity (nM alkene produced/min)” value in assay [1] worked out at 22.9 nM alkene produced/min.
As to `Nc1ncnc2c1ncn2[C@@H]1O[C@H](COP(=O)(O)OP(=O)(O)OP(=O)(O)O)[C@@H](O)[C@H]1O` [ATP], the “effect of co-factor supplementation” value in assay [3] (co-factor at 1 mM) was “no increase”.
For `CCCCCCCCCCCCCCCCCCCCCC(=O)O` [behenic acid], in assay [1], the “Activity (nM alkene produced/min)” value is listed as 30.6 nM alkene produced/min.

These data come from patent publication US8597922B2, “Methods and compositions for producing olefins” (LS9, Inc., priority 2007, dated 2013).
